Experimental data from patent publication US20120115871A1, “METHOD OF TREATMENT OF DEPRESSION” (Supemus Pharmaceuticals, Inc, priority 2009, published 2012).

Tests used:
5-HT1D = 5-HT1D (Rattus norvegicus, UniProt P28565); assay: biochemical; details: read-out: % Inhib.
From the text: (§1) Briefly, recombinant 5-HT7 receptors were expressed in a CHO cell line. The receptors were then saturated with a tritiated receptor-specific ligand at concentrations known to be saturating.

5-HT5A (h) = 5-HT5A (h) (Homo sapiens, UniProt P47898); assay: biochemical; details: read-out: % Inhib.
Sequence of 5-HT5A (h) (P47898 whole entry): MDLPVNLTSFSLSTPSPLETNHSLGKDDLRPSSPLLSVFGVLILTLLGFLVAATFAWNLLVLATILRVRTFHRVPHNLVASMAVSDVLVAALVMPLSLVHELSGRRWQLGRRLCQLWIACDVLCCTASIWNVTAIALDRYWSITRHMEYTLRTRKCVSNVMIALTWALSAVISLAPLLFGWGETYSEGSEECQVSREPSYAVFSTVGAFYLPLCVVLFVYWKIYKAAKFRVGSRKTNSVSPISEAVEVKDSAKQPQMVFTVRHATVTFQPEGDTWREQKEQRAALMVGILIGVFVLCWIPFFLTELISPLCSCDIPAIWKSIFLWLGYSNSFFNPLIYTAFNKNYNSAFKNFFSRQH
From the text: as §1

5-HT4e (h) = 5-HT4e (h) (Homo sapiens, UniProt Q13639); assay: biochemical; details: read-out: % Inhib.
Sequence of 5-HT4e (h) (Q13639 1-378 isoform Q13639-5): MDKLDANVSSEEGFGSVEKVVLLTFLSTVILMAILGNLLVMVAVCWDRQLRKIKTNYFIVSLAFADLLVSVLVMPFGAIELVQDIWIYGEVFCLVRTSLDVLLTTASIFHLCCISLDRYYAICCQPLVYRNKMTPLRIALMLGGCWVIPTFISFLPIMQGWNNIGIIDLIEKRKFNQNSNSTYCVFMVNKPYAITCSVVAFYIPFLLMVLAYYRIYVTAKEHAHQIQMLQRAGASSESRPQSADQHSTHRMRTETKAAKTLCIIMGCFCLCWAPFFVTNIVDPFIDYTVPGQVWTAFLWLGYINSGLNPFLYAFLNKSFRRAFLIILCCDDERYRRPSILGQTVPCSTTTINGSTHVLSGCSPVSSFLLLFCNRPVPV
From the text: as §1

5-HT6 (h) = 5-HT6 (h) (Homo sapiens, UniProt P50406); assay: biochemical; details: read-out: % Inhib.
Sequence of 5-HT6 (h) (P50406 whole entry): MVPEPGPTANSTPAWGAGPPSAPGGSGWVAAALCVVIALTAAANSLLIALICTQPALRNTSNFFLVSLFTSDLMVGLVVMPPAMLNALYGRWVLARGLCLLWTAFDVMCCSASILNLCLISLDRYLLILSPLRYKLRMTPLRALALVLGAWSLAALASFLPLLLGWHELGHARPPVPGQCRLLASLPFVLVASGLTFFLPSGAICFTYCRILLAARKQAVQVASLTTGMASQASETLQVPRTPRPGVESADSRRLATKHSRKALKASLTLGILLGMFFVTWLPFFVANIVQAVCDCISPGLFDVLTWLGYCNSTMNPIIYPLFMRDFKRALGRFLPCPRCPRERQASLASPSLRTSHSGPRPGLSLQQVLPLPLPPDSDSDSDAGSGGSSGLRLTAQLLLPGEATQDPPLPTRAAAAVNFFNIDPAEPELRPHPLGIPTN
From the text: as §1

5-HT3 (h) = 5-HT3 (h) (Homo sapiens, UniProt P46098); assay: biochemical; details: read-out: % Inhib.
Sequence of 5-HT3 (h) (P46098 24-478): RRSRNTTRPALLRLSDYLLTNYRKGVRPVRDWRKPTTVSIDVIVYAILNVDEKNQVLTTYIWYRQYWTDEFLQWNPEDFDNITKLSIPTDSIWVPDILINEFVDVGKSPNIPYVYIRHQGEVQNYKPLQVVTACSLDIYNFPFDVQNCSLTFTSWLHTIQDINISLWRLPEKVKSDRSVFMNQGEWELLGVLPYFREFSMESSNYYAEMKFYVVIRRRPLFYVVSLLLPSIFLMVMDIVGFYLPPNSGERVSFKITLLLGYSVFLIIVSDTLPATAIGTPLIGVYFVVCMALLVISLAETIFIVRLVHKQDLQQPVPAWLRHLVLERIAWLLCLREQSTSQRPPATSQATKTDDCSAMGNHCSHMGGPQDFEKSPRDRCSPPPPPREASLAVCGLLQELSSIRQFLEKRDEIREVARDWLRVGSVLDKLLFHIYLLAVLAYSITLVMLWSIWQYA
From the text: as §1

5-HT7 (h) = 5-HT7 (h) (Homo sapiens, UniProt P34969); details: range of concentrations; FIG. 2
Sequence of 5-HT7 (h) (P34969 whole entry): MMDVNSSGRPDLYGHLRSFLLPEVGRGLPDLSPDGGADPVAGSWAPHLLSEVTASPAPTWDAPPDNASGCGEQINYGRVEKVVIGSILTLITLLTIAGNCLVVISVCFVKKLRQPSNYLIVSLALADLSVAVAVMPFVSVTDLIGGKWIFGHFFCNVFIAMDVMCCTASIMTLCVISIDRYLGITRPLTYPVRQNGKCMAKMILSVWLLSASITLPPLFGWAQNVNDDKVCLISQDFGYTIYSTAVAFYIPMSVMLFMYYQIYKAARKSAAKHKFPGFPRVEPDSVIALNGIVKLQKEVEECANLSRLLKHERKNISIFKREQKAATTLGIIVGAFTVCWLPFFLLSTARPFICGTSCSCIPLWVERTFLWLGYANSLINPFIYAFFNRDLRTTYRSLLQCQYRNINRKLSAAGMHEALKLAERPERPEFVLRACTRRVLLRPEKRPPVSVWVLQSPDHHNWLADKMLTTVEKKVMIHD
Procedure: The apparent dissociation constants for antagonists Kb were calculated using the modified Cheng Prusoff equation.

[1] = molecular target: noradrenergic reuptake transporters (Homo sapiens, UniProt P23975); details: Tatsumi et al [1997]; cited from earlier work
Sequence of noradrenergic reuptake transporters (P23975 whole entry): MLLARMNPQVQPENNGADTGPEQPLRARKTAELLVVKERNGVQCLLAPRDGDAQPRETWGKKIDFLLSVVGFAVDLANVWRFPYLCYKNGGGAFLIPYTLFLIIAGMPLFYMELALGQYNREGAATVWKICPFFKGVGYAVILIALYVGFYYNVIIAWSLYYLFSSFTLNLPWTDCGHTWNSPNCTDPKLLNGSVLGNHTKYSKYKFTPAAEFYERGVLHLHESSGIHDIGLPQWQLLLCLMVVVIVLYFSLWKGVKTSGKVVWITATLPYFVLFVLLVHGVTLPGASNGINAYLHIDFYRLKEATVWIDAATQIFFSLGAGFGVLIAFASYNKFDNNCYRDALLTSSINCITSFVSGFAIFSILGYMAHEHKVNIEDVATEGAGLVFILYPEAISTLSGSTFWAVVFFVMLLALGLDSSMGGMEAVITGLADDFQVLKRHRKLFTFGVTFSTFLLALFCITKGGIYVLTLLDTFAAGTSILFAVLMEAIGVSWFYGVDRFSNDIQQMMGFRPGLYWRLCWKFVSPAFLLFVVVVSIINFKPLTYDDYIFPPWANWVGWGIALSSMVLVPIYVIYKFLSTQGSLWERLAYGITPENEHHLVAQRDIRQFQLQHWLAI

[2] = molecular target: serotonin reuptake inhibitor (Homo sapiens, UniProt P31645); details: very weak activity; Tatsumi et al [1997]; cited from earlier work
Sequence of serotonin reuptake inhibitor (P31645 whole entry): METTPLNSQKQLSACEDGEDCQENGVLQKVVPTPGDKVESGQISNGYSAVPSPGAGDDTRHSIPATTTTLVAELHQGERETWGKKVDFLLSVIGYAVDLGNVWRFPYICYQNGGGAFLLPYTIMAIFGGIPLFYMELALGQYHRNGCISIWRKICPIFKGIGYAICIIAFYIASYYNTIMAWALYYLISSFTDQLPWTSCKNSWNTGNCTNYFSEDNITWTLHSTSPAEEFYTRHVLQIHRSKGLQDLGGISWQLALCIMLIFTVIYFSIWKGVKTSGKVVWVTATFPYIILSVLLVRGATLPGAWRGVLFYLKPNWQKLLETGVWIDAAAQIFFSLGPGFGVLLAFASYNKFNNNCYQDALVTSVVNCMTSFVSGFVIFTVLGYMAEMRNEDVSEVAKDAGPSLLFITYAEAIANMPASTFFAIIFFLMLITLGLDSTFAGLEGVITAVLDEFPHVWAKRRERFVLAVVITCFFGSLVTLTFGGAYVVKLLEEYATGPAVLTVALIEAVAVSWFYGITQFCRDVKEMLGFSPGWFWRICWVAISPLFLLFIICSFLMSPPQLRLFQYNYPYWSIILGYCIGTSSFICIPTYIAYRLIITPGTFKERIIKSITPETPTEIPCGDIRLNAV

[3] = background statement; cited from earlier work

Sequence of 5-HT1D (P28565 whole entry): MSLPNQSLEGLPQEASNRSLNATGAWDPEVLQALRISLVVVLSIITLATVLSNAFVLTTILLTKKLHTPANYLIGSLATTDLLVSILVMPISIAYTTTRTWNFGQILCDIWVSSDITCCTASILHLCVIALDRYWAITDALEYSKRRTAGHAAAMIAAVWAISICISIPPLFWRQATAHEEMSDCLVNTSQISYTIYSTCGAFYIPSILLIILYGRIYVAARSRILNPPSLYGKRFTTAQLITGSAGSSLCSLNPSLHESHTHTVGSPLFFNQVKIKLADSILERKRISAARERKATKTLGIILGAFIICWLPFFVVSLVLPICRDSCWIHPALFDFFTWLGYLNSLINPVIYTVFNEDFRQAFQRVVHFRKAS

CCOc1ccccc1OCC1CNCCO1 (racemic) [viloxazine, Viloxazine]
inhibition at 0.001 µM (5-HT1D): 18%
inhibition at 0.001 µM (5-HT5A (h)): 15%
inhibition at 0.0003 µM (5-HT4e (h)): 16%
inhibition at 0.002 µM (5-HT6 (h)): 6%
inhibition at 0.0005 µM (5-HT3 (h)): 18%
agonist effect (cAMP response) (5-HT7 (h)): no measurable response
inhibition of noradrenergic reuptake transporters [1]: 155 nM
activity at the serotonin reuptake inhibitor [2]: 17.3 μm

CCOc1ccccc1OC[C@@H]1CNCCO1 (single isomer, unassigned) [S(−)-isomer]
pharmacological activity relative to R(+)-isomer [3]: five times more pharmacologically active than the R(+)-isomer
